In ChEMBL document CHEMBL1201862, “PubChem BioAssay data set” (2004):
Calls of active or inactive are those of the source.

Assays:
[1] = biological target: DNA dC->dU-editing enzyme APOBEC-3A (Homo sapiens, UniProt P31941); experiment: Dose Response confirmation of small molecule APOBEC3A DNA Deaminase Inhibitors via a fluorescence-based single-stranded DNA deaminase assay. [Related pubchem assays (depositor defined):AID493011, AID493024]; assay type: functional
[2] = biological target: DNA dC->dU-editing enzyme APOBEC-3G (Homo sapiens, UniProt Q9HC16); assay type: functional;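 further: Dose-response counterscreen measuring inhibition of APOBEC3G DNA deaminase activity, run while confirming APOBEC3A inhibitors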
Chain of DNA dC->dU-editing enzyme APOBEC-3G (Q9HC16 whole entry): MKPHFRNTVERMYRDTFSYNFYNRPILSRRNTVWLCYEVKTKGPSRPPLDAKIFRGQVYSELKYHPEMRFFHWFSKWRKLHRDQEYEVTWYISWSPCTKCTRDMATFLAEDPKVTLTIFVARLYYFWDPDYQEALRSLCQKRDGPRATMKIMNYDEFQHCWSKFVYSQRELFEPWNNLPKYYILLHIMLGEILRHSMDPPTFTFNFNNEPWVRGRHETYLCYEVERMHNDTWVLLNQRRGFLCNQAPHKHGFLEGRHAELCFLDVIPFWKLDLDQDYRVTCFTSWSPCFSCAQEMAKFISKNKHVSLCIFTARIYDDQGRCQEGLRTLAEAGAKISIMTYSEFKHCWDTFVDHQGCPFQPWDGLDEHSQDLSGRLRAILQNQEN

[3] = biological target: T1, Short transient receptor potential channel 4 (Mus musculus, UniProt Q9QUQ5); experiment: calcium entry via TRPC4 opening agents – cell-based, HEK293 TRPC4/mu-opioid, Fluo-4 calcium, dose response (AID 434937); assay type: functional
T1 sequence (Q9QUQ5 whole entry): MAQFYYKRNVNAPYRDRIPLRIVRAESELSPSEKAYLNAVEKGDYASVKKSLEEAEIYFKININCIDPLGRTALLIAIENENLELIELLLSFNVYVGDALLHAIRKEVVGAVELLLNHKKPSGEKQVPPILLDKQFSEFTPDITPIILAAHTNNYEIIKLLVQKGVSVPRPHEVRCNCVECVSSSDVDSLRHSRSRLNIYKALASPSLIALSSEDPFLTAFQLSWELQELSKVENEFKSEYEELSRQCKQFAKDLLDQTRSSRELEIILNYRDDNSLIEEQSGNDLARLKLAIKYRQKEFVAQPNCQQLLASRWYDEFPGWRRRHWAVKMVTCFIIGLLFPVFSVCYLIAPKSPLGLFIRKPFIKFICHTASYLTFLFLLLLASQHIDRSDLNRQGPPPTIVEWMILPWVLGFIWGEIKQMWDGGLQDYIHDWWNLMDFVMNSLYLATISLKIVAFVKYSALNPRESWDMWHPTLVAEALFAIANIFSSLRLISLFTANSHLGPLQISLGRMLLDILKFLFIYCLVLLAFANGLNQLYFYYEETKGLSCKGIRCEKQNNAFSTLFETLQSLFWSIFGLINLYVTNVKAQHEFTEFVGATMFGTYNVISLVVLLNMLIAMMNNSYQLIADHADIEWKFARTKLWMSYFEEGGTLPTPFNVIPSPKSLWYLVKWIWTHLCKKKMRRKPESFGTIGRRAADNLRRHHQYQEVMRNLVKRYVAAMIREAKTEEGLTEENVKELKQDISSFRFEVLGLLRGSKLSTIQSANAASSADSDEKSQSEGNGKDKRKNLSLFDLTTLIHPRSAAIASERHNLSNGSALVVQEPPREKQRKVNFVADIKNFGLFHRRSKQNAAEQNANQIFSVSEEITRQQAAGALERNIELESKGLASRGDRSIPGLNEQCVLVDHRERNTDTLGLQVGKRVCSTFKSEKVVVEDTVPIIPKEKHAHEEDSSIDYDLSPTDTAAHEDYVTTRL

[4] = biological target: T2, Corticotropin-releasing factor receptor 2/Corticotropin-releasing factor-binding protein (Homo sapiens, UniProt P24387+Q13324); experiment: activators of CRF receptor 2 with binding protein – uHTS hits, confirmation (AID 602473); assay type: functional; conditions: read-out: EC50_Mean
T2 sequence (Q13324 whole entry): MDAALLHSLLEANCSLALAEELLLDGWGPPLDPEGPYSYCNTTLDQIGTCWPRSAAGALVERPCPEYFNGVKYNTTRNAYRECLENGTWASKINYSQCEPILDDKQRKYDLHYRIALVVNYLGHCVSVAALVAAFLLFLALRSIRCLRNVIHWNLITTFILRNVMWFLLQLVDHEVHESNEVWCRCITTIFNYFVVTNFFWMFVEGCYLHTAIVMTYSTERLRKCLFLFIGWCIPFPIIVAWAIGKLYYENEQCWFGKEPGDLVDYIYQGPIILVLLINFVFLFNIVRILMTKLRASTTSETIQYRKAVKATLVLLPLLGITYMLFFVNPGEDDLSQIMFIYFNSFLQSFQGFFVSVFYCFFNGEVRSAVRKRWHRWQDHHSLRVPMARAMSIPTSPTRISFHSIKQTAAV
T2 sequence (P24387 whole entry): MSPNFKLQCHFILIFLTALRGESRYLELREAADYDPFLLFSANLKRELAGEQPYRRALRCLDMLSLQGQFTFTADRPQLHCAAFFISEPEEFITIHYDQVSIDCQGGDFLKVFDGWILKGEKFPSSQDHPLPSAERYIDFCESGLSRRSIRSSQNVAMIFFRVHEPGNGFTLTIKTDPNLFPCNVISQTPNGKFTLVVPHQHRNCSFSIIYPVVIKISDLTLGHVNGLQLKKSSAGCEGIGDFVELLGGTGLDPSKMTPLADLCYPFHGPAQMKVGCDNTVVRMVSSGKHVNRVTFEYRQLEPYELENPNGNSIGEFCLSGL

Cytochrome P450 2C9 = Cytochrome P450 2C9 (Homo sapiens, UniProt P11712)
Chain of Cytochrome P450 2C9 (P11712 whole entry): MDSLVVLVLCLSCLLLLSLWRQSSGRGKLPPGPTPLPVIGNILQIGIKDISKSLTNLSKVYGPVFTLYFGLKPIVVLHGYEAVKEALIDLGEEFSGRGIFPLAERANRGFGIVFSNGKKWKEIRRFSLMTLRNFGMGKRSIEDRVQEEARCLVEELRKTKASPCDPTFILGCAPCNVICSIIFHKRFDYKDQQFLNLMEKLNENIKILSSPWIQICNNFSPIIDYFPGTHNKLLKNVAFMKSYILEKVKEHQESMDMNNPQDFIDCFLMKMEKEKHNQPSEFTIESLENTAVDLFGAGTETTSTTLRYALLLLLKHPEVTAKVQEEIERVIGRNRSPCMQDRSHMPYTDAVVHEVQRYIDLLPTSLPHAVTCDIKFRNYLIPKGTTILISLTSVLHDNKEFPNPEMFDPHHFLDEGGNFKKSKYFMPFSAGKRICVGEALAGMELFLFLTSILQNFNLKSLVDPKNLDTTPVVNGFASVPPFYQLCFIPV

Cytochrome P450 3A4 = Cytochrome P450 3A4 (Homo sapiens, UniProt P08684);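 further: CYP3A4 tested as one member of a cytochrome P450 panel screen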
Chain of Cytochrome P450 3A4 (P08684 whole entry): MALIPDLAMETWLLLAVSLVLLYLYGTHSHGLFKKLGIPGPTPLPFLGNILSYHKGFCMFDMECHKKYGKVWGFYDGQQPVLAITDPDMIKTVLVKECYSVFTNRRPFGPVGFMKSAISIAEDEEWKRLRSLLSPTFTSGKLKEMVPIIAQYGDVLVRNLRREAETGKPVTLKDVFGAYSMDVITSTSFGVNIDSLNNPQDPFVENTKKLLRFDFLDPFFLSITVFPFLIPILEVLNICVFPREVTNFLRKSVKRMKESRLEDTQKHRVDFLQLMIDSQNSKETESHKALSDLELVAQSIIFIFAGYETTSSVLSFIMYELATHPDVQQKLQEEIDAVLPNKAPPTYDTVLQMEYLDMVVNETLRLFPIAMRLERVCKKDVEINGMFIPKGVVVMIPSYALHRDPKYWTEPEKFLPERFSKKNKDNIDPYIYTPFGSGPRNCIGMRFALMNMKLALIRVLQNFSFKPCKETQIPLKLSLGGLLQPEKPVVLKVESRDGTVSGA

[5] = viability of PTEN-deleted HCT116 cells – cell-based, HCT116 PTEN knockout, dose response (AID 1047); assay type: functional;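 further: HCT116 colon tumor cells with PTEN knocked out; cells exposed to compound for 60 hours before readout; potency for loss of cell viability measured by luminescence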
cells = assay type: functional
[6] = THP-1 cell cytotoxicity, dose response, cytotoxicity control for non-replicating M. tuberculosis project (AID 489025); assay type: functional
[7] = Vero E6 cell cytotoxicity, dose response, cytotoxicity control for non-replicating M. tuberculosis project, secondary assay (AID 492998); assay type: functional, VeroE6; conditions: Vero C1008
[8] = viability of HCT116 lacking mutant beta-catenin – cell-based, human colon tumor, dose response (AID 1045); assay type: functional;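 further: HCT116 colon tumor cells with beta catenin knocked out; cells exposed to compound for 60 hours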
Aminopeptidase N = biological target: T3, Aminopeptidase N (Plasmodium falciparum FcB1/Columbia, UniProt O96935); experiment: malaria alanyl aminopeptidase activity blockers – biochemical, fluorogenic H-Leu-NHMec substrate, 1536-well (AID 1445); parameters: species or system Plasmodium falciparum 3D7, 3D7
T3 sequence (O96935 whole entry): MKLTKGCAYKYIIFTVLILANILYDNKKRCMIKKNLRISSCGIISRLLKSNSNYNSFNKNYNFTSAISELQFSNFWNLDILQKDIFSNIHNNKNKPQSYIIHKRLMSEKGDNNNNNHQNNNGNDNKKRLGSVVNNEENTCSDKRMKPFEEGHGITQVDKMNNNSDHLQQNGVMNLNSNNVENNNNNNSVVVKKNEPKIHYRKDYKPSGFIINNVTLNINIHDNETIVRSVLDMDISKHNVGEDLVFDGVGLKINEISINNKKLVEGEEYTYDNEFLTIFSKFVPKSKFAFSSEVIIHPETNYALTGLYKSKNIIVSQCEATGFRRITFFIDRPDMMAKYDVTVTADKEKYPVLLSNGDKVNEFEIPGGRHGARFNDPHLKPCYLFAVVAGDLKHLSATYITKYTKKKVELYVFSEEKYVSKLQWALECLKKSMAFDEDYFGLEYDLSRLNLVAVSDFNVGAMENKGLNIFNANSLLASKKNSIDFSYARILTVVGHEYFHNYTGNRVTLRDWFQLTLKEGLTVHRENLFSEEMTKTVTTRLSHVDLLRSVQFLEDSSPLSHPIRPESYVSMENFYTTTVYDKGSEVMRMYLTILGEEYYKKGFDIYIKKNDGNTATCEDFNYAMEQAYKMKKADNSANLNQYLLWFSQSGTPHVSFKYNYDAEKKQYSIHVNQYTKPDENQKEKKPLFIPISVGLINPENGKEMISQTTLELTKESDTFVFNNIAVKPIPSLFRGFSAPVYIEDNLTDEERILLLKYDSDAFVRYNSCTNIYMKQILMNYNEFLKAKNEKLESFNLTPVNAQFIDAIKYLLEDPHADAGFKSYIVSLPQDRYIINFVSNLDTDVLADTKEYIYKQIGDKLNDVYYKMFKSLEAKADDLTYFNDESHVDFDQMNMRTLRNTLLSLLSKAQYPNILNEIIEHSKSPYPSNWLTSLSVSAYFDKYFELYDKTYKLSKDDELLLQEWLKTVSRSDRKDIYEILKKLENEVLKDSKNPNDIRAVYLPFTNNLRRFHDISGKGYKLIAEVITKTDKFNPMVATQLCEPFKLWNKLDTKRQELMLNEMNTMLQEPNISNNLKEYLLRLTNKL

Leucine aminopeptidase = biological target: T4, Leucine aminopeptidase (Plasmodium falciparum 3D7, UniProt Q8IL11); experiment: P. falciparum M17LAP inhibitors, primary screen, biochemical, fluorogenic H-Leu-NHMec substrate, 1536-well (AID 1619); assay type: functional
T4 sequence (Q8IL11 whole entry): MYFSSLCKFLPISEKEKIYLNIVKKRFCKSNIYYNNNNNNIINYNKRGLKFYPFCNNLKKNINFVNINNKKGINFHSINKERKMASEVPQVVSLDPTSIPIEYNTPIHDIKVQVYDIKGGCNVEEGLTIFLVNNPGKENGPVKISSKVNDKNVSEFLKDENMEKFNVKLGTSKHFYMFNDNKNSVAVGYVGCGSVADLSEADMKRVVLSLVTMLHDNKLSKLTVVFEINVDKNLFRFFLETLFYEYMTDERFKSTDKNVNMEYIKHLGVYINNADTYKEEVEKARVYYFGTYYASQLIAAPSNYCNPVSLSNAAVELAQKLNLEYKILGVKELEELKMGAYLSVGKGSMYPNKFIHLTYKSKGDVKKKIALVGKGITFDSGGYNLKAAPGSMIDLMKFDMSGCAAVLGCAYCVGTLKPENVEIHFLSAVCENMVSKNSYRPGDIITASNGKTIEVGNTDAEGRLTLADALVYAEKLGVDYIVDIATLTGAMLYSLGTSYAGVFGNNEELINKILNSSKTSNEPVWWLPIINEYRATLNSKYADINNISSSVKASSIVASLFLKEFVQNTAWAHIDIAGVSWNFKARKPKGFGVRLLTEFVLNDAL

HEK293 [9] = experiment: cells; assay type: functional, cell-based; conditions: Homo sapiens
HEK293 [10] = experiment: NOD2 signaling inhibitors in MDP-stimulated cells, cell-based, uHTS, luminescence (AID 2001); assay type: functional; conditions: Homo sapiens
[11] = NIH-3T3 fibroblast cytotoxicity, dose response, cytotoxicity control, cell-based, fluorescence, Alamar Blue, secondary assay (AID 2327); assay type: functional;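 further: NIH-3T3 mouse fibroblasts cultured with fluconazole at 8 µg/mL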
HEK293 [12] = experiment: cells; assay type: functional, cell-based; conditions: Homo sapiens; remark: listed apart in the source
HEK293 [13] = experiment: cells; assay type: functional, cell-based; conditions: Homo sapiens; remark: listed apart in the source
HEK293 [14] = experiment: inhibition of NOD1-driven NF-kB reporter – cell-based, luminescence, uHTS, primary screen (AID 1578); assay type: functional; conditions: Homo sapiens
[15] = biological target: Nucleotide-binding oligomerization domain-containing protein 2 (Homo sapiens, UniProt Q9HC29); experiment: inhibition of NOD2-driven NF-kB reporter – cell-based, luminescence, uHTS, HEK293 (AID 1566); assay type: functional
Chain of Nucleotide-binding oligomerization domain-containing protein 2 (Q9HC29 whole entry, the tested form may be a part): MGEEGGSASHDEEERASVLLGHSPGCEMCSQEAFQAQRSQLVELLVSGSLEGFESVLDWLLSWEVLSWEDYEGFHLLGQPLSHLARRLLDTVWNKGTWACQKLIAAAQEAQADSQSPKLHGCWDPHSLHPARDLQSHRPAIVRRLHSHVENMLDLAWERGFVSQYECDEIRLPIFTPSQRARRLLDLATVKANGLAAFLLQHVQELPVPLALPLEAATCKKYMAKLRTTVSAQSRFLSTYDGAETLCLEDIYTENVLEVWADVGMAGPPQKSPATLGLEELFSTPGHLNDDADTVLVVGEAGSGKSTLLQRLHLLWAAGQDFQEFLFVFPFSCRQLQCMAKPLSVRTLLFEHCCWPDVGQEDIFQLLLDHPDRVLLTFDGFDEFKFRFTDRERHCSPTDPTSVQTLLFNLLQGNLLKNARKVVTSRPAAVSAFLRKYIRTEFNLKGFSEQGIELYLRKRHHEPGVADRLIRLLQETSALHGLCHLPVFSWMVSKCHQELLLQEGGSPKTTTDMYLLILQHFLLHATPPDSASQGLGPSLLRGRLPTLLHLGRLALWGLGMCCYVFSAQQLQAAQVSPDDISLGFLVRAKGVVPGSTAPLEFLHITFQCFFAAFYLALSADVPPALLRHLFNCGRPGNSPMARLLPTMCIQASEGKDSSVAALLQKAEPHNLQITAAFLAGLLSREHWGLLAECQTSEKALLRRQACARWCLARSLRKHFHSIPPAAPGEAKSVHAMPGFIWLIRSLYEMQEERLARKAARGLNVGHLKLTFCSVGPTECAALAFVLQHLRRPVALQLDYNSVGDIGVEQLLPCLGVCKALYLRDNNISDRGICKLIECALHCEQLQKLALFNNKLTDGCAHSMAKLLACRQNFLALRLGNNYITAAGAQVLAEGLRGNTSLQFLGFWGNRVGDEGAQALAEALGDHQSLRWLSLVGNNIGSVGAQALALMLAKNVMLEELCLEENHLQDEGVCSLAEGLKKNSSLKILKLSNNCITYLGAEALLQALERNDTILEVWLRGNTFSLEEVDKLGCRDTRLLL

[16] = fluconazole-exposed Candida albicans growth modulators – fluorescence, retest, confirmation (AID 2467); assay type: functional, cell-based
[17] = biological target: T1, Short transient receptor potential channel 4; experiment: block of DAMGO-driven TRPC4 calcium entry – cell-based, HEK293 TRPC4/mu-opioid, Fluo-4 calcium, dose response (AID 434942); assay type: functional;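 further: potency of inhibitors blocking the TRPC4 calcium response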
INS1 = experiment: INS-1E survival protection against cytokine death – cell-based, luminescence, retest, dose response (AID 449756); assay type: functional; conditions: Rattus norvegicus;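 further: cell death triggered by IL-1 beta plus TNF-alpha plus IFN-gamma mixture; protective hits raise ATP signal compared with cytokine alone wells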

Chain of DNA dC->dU-editing enzyme APOBEC-3A (P31941 whole entry): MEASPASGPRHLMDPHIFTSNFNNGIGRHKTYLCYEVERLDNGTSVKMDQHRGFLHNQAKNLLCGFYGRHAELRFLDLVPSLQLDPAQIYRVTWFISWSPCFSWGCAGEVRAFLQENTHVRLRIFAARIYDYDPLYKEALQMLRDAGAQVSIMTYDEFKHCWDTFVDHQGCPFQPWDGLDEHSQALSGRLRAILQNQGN

CC1=CC(C)(C)[N+](C)(C)c2ccccc21
IC50 [1]: 2.6 µM (active) | IC50 [2]: 2.98 µM (active)

CC1CN(C(=O)c2ccc(NS(=O)(=O)c3ccc(C(C)(C)C)cc3)cc2)CC(C)O1 (stereo not drawn)
EC50 [3]: 5.96 µM (active) | EC50 [4]: 15.7 µM (active)

COc1ccc(-c2nn(-c3ccccc3C)cc2CNC(C)c2cn(C)nc2C)cc1F (stereo not drawn)
EC50 [3]: 1.68 µM (active)

CCOC(=O)c1c(C)nc2sc3c(=O)n(-c4ccc(C(C)=O)cc4)nnc3c2c1-c1ccc(Cl)cc1
AC50 (Cytochrome P450 2C9): 2.82 µM (inconclusive) | AC50 (Cytochrome P450 3A4): inconclusive

COc1ccc(/C=C2\COc3ccccc3C2=O)cc1OC
EC50 [5]: 7.42 µM (active) | IC50 (cells): 12.8 µM (active) | CC50 [6]: 17.9 µM (active) | CC50 [7]: > 20 µM (active) | EC50 [8]: 7.29 µM (active)

COc1ccc(/C=N/NC2=NC(=O)C(CC(=O)O)S2)cc1OCc1ccc(Cl)cc1 (stereo not drawn)
IC50 (Aminopeptidase N): 66.7 µM (active) | IC50 (Leucine aminopeptidase): 20.3 µM (active)

NC(N)=Nc1nc2ccc([N+](=O)[O-])cc2[nH]1
AC50 (Cytochrome P450 3A4): inconclusive

COc1cc(CNCCc2ccccc2)cc(Br)c1OCC(=O)Nc1ccccc1C
IC50 (cells): 21.2 µM (active) | CC50 [6]: 23.1 µM (active) | CC50 [7]: 19.4 µM (active)

CCn1nc(NC(=O)COC)c2cc3cc(C)ccc3nc21
IC50 [1]: 5.02 µM (active) | IC50 [2]: 6.5 µM (active)

CN1CCN(S(=O)(=O)c2cccc(C(=O)N3CCN(c4ccccc4F)CC3)c2)CC1
IC50 [1]: 10.1 µM (active) | IC50 [2]: 19.2 µM (active)

Cc1nonc1C(=O)N/N=C/c1ccc([N+](=O)[O-])o1
IC50 (HEK293 [9]): > 20 µM (inactive) | IC50 (HEK293 [10]): > 20 µM (inactive) | EC50 [11]: 30.2 µM (active) | IC50 (cells): 8.02 µM (active) | IC50 (HEK293 [12]): > 20 µM (inactive) | IC50 (HEK293 [13]): > 20 µM (inactive) | EC50 (HEK293 [14]): 9.04 µM (active) | EC50 [15]: 10.9 µM (active) | EC50 [16]: 1.82 µM (active)

CCc1ccc(/C=C/c2c[nH]c3ccccc23)[n+](CC)c1
IC50 [1]: 2.33 µM (active) | IC50 [2]: 2.24 µM (active)

CCCCC(c1nnnn1CC1CCCO1)N1CCN(Cc2ccccc2)CC1 (stereo not drawn)
EC50 [3]: 4.73 µM (active) | EC50 [17]: 2.37 µM (active)

Cc1ccc(-c2c(C#N)c(N)n3c(nc4ccccc43)c2C#N)cc1
IC50 (HEK293 [9]): 11 µM (active) | IC50 (HEK293 [10]): 6.22 µM (active) | IC50 (HEK293 [12]): 6.06 µM (active) | AC50 (INS1): 3.86 µM (active) | IC50 (HEK293 [13]): > 20 µM (inactive) | EC50 (HEK293 [14]): 2.11 µM (active) | EC50 [15]: > 20 µM (inactive)

O=S(=O)(c1cccc(C(F)(F)F)c1)N1CCC(c2cc(-c3cccc4ccccc34)[nH]n2)CC1
AC50 (Cytochrome P450 3A4): inconclusive
